Results published in patent US4870074A, “Substituted benzamide derivatives, for enhancing gastrointestinal motility” (priority 1986, dated 1989).

What was measured:
[1] = test system: gastric emptying; assay: Test 1: gastric emptying enhancing activity (phenol red test meal); format: in vivo, Male Wistar rats; conditions: for change in vivo at 2 mg/kg / change in vivo at 0.2 mg/kg / change in vivo at 0.5 mg/kg / change in vivo at 5 mg/kg / change in vivo at 10 mg/kg: po, 0.25 h, 60 min before test meal, rat, read-out: Gastric emptying enhancing activity, Increase (emptying rate vs control); for change in vivo at 2 mg/kg: 2.0 mg/kg p.o.; for change in vivo at 0.2 mg/kg: 0.2 mg/kg p.o.; for change in vivo at 0.5 mg/kg: 0.5 mg/kg p.o.; for change in vivo at 5 mg/kg: 5.0 mg/kg p.o.; for change in vivo at 10 mg/kg: 10.0 mg/kg p.o.
Method: The test was carried out according to the method of Scarpignato et al. [cf. Arch. int. Pharmacodyn., 246, 286-294 (1980)].
Male Wistar rats, weighing 130-150 g, were fasted for 18 hours before experimentation, and 1.5 ml of a test meal (phenol red 0.05% in a 1.5% aqueous methylcellulose solution) was given by gastric tube. Fifteen minutes after administration of the meal the stomach was removed and the amount of phenol red remaining in the stomach was measured.
The test compounds, dissolved or suspended in a 0.5% tragacanth solution, were orally administered 60 minutes before administration of the test meal. The rate of gastric emptying was calculated according to the amount of phenol red remaining in the stomach, and the activity of the test compounds was expressed in terms of increase in the emptying rate from the control. The number of animals used was 5 for the control and each dose of metoclopramide hydrochloride monohydrate and 4 for each dose of the other test compounds.

[2] = test system: central nervous system; assay: Test 3: effect on the central nervous system (CNS effect), Irwin observation; conditions: 100 mg/kg, p.o., mouse, 2 hours observation
Method: Male ddY mice, weighing 18-25 g, were used in groups of 3 animals each. […] Psychopharmacologia, 13, 222-227 (1968)], comprehensive observation of behavioral and physiologic states were carried out for 2 hours after the oral treatment with 100 mg/kg of the test compound, dissolved or suspended in a 0.5% tragacanth solution. Liability of the test compounds to the central nervous system effect was expressed with the following marks, according to the total sum of potencies for the individually analyzed effects, such as catalepsy, ptosis, hypolocomotin, etc.

CNS effect [2]	SMILES	change in vivo at 2 mg/kg [1] [%]	further results
	CCOc1cc(N)c(Cl)cc1C(=O)NCC1CN(Cc2ccccc2F)CCO1 (stereo not drawn) [Example 64]	59.9	
	CCOc1cc(N)c(Cl)cc1C(=O)NCC1CN(Cc2ccccc2Cl)CC(C)O1 (stereo not drawn) [Example 14, 4-amino-5-chloro-N-[[4-(2-chlorobenzyl)-6-methyl-2-morpholinyl]methyl]-2-ethoxybenzamide]	47.5	
	CCOc1cc(N)c(Cl)cc1C(=O)NCC1CN(Cc2cccc(F)c2)CCO1 (stereo not drawn) [Example 65]	54.1	
-	CCOc1cc(N)c(Cl)cc1C(=O)NCC1CN(Cc2ccncc2)CCO1 (stereo not drawn) [Example 81]	52.9	
-	CCOc1cc(N)c(Cl)cc1C(=O)NCC1CN(Cc2ccc(F)cc2)CCO1 (stereo not drawn) [Example 1(1), 4-amino-5-chloro-2-ethoxy-N-[[4-(4-fluorobenzyl)-2-morpholinyl]methyl]benzamide]	49.8	change in vivo at 0.2 mg/kg [1]: 39.5%
-	CCCCCCCOc1cc(N)c(Cl)cc1C(=O)NCC1CN(Cc2ccccc2)CCO1 (stereo not drawn) [Example 97]	43.8	
-	CCOc1cc(N)c(Cl)cc1C(=O)NCC1CN(Cc2ccccc2Cl)CCO1 (stereo not drawn) [66(1)]	41.3	
-	CC(C)CCOc1cc(N)c(Cl)cc1C(=O)NCC1CN(Cc2ccc(F)cc2)CCO1 (stereo not drawn) [Example 94]	52	
	COc1cc(N(C)C)c(Cl)cc1C(=O)NCC1CN(Cc2ccccc2)CCO1 (stereo not drawn) [Example 130]	51.8	
-	COc1cc(N)c(Cl)cc1C(=O)NCC1CN(Cc2ccc(C#N)cc2)CCO1 (stereo not drawn) [Example 6, 4-amino-5-chloro-N-[[4-(4-cyanobenzyl)-2-morpholinyl]methyl]-2-methoxybenzamide]	49.2	
-	CC(=O)COc1cc(N)c(Cl)cc1C(=O)NCC1CN(Cc2ccccc2)CCO1 (stereo not drawn) [Example 104]	43.8	
-	CCOc1cc(N)c(Cl)cc1C(=O)NCC1CN(Cc2ccc(Cl)cc2)CCO1 (stereo not drawn) [68(1)]	62.7	
	CCOc1cc(N)c(Cl)cc1C(=O)NCC1CN(CCCCc2ccccc2)CCO1 (stereo not drawn) [Example 76]	47.1	
	COc1cc(N)c(Cl)cc1C(=O)NCC1CN(CCCOc2ccc(Cl)cc2)CCO1 (stereo not drawn) [Example 52]	52.5	
	COc1cc(N)c(Cl)cc1C(=O)NCC1CN(Cc2cccc(C#N)c2)CCO1 (stereo not drawn) [Example 33]	42.3	
-	CCOc1cc(N)c(Cl)cc1C(=O)NCC1CN(Cc2cccc(C(F)(F)F)c2)CCO1 (stereo not drawn) [Example 70]	57.8	
	C#CCOc1cc(N)c(Cl)cc1C(=O)NCC1CN(Cc2ccccc2)CCO1 (stereo not drawn) [Example 120]	40.6	
	CCCCCOc1cc(N)c(Cl)cc1C(=O)NCC1CN(Cc2ccccc2)CCO1 (stereo not drawn) [Example 92]	41	
	CCOc1cc(N(C)C)c(Cl)cc1C(=O)NCC1CN(Cc2ccccc2)CCO1 (stereo not drawn) [Example 132]	50.6	
-	CC(C)=CCOc1cc(N)c(Cl)cc1C(=O)NCC1CN(Cc2ccccc2)CCO1 (stereo not drawn) [Example 116, 4-amino-N-[(4-benzyl-2-morpholinyl)methyl]-5-chloro-2-(3-methyl-2-butenyloxy)benzamide]	52.4	change in vivo at 0.5 mg/kg [1]: 41.4%

CNS effect [2]	SMILES	change in vivo at 2 mg/kg [1] [%]	further results
-	CCOc1cc(N)c(Cl)cc1C(=O)NCC1CN(Cc2ccccc2)CCO1 (stereo not drawn) [63(1), 4-amino-N-[(4-benzyl-2-morpholinyl)methyl]-5-chloro-2-ethoxybenzamide]	54.4	change in vivo at 0.5 mg/kg [1]: 33.9%
	CCOc1cc(N)c(Cl)cc1C(=O)NCC1CN(Cc2ccccc2)CCCO1 (stereo not drawn) [Example 16, 4-amino-N-[(4-benzyl-hexahydro-1,4-oxazepin-2-yl)methyl]-5-chloro-2-ethoxybenzamide]	47.3	
	CCOc1cc(N)c(Cl)cc1C(=O)NCC1CN(Cc2ccc(C#N)cc2)CCO1 (stereo not drawn) [Example 73]	46.2	change in vivo at 0.5 mg/kg [1]: 44.2%
	CCCOc1cc(N)c(Cl)cc1C(=O)NCC1CN(Cc2ccccc2)CCO1 (stereo not drawn) [Example 86]	55	
	CCN(CC)CCNC(=O)c1cc(Cl)c(N)cc1OC [A, 4-amino-5-chloro-N-[(2-diethylamino)ethyl]-2-methoxybenzamide, reference compound]	20.7	change in vivo at 5 mg/kg [1]: 25.7%; change in vivo at 10 mg/kg [1]: 30.7%
	CCOc1cc(N)c(Cl)cc1C(=O)NCC1CN(C(C)c2ccccc2)CCO1 (stereo not drawn) [Example 77]	43.8	
	CCOc1cc(N)c(Cl)cc1C(=O)NCC1CN(Cc2ccccn2)CCO1 (stereo not drawn) [Example 79]	51	
-	CC(C)CCOc1cc(N)c(Cl)cc1C(=O)NCC1CN(Cc2ccccc2Cl)CCO1 (stereo not drawn) [Example 95]	61.6	change in vivo at 0.2 mg/kg [1]: 34.7%
	COc1cc(N)c(Cl)cc1C(=O)NCC1CN(C(C)c2ccccc2)CCO1 (stereo not drawn) [Example 37]	42.2	
	CCOc1cc(N)c(Cl)cc1C(=O)NCC1C[N+]([O-])(Cc2ccccc2Cl)CCO1 (stereo not drawn) [Example 244, 4-amino-5-chloro-N-[[4-(2-chlorobenzyl)-2-morpholinyl]methyl]-2-ethoxybenzamide N-oxide]	51.8	
	C=CCOc1cc(N)c(Cl)cc1C(=O)NCC1CN(Cc2ccccc2)CCO1 (stereo not drawn) [Example 115]	45.6	
-	CCOc1cc(N)c(Cl)cc1C(=O)NCC1CN(Cc2cccnc2)CCO1 (stereo not drawn) [80(1)]	65.6	
	CCOc1cc(NC(C)=O)c(Cl)cc1C(=O)NCC1CN(Cc2ccc(F)cc2)CCO1 (stereo not drawn) [Example 7, 4-acetylamino-5-chloro-2-ethoxy-N-[[4-(4-fluorobenzyl)-2-morpholinyl]methyl]benzamide]	74	
-	CCOc1cc(N)c(Cl)cc1C(=O)NCC1CN(Cc2ccc(Cl)cc2[N+](=O)[O-])CCO1 (stereo not drawn) [Example 74]	46.7	
-	C=CCCOc1cc(N)c(Cl)cc1C(=O)NCC1CN(Cc2ccccc2)CCO1 (stereo not drawn) [Example 119]	48.4	
	Nc1cc(OCC2CC2)c(C(=O)NCC2CN(Cc3ccccc3)CCO2)cc1Cl (stereo not drawn) [Example 111]	48.7	
	Nc1cc(OCCCl)c(C(=O)NCC2CN(Cc3ccccc3)CCO2)cc1Cl (stereo not drawn) [Example 102]	46.8	
	COc1cc(N)c(Cl)cc1C(=O)NCC1CN(Cc2cccc(C(F)(F)F)c2)CCO1 (stereo not drawn) [Example 28]	42.8	
	CCN1CCOC(CNC(=O)c2ccccc2OC)C1.O=C(O)/C=C/C(=O)O (stereo not drawn) [Compound B, N-[(4-Ethyl-2-morpholinyl)methyl]-2-methoxybenzamide fumarate, reference compound]	3.8	gastric emptying enhancing effect (in words) ([1]; even at a dose of 10.0 mg/kg p.o.): did not show any effect; change in vivo at 5 mg/kg [1]: -1.9%; change in vivo at 10 mg/kg [1]: 2.1%
	COc1cc(N)c(Cl)cc1C(=O)NCC1CN(Cc2c(F)c(F)c(F)c(F)c2F)CCO1 (stereo not drawn) [Example 25]	39.1	

SMILES	CNS effect [2]	change in vivo at 2 mg/kg [1] [%]	further results
CCCCOc1cc(N)c(Cl)cc1C(=O)NCC1CN(Cc2ccccc2)CCO1 (stereo not drawn) [Example 88, 4-amino-N-[(4-benzyl-2-morpholinyl)methyl]-2-butoxy-5-chlorobenzamide]	-	53.7	change in vivo at 0.2 mg/kg [1]: 32.8%; change in vivo at 0.5 mg/kg [1]: 42.9%
